The results in this text go back to paper PMC5907398, “Inhibition of Acetylcholinesterase and Butyrylcholinesterase by a Plant Secondary Metabolite Boldine” (BioMed Research International, 2018).

The target in test [1] is T1, Butyrylcholinesterase (BChE) (Homo sapiens, UniProt P06276).
T1 construct: from human serum
Nature of the test: Ellman spectrophotometric assay with butyrylthiocholine, Dixon plot. In kind it is biochemical. As to conditions: read-out: IC50 (μmol/l) by spectrophotometry. Background: In Ellman's method for cholinesterases, released thiocholine reacts with DTNB.

Test [2] concerns the target T2, Acetylcholinesterase (AChE) (Homo sapiens, UniProt P22303).
T2 construct: human, recombinant (expressed in HEK 293 cells)
Nature of the test: Ellman spectrophotometric assay with acetylthiocholine, Dixon plot. In kind it is biochemical. As to conditions: read-out: IC50 (μmol/l) by spectrophotometry.

T2 sequence (P22303 32-614): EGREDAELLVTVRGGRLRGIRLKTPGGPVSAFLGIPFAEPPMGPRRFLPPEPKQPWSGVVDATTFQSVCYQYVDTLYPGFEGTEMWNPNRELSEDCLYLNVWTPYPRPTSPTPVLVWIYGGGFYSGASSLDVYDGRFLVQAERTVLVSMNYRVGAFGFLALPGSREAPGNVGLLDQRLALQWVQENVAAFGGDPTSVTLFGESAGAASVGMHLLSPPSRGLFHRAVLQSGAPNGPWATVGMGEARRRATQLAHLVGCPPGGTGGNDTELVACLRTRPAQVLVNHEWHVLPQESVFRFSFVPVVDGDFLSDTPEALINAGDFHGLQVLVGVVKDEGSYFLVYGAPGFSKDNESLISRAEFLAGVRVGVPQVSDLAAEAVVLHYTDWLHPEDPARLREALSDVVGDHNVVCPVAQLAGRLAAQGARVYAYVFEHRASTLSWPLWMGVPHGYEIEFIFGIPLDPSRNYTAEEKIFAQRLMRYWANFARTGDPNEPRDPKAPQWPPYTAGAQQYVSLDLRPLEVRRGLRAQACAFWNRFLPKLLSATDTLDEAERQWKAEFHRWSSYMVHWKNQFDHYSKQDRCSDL
T1 sequence (P06276 29-602): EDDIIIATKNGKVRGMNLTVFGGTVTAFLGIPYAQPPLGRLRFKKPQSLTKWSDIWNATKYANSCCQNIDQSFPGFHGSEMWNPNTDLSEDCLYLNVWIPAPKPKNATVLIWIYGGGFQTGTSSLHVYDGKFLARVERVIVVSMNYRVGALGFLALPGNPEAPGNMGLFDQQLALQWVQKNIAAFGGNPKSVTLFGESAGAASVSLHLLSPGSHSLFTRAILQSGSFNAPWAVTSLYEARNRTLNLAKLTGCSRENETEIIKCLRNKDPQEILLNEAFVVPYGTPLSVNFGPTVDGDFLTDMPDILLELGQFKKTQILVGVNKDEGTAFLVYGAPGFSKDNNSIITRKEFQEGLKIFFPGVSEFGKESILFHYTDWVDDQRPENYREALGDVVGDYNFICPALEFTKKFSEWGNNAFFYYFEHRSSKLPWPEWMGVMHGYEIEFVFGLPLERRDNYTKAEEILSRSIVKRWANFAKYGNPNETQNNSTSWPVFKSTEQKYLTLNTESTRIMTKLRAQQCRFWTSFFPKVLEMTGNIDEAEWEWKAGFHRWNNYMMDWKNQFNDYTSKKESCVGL

`COc1cc2c(cc1O)C[C@H]1c3c(cc(O)c(OC)c3-2)CCN1C` [boldine, (S)-2,9-dihydroxy-1,10-dimethoxy-aporphine]: the IC50 amounted to 322 µmol/L in test [1] and 372 µmol/L in test [2].
